Residue numbers refer to the chain shown, from its start.
Columns and labels:
[1] = target: T1, PTH1R (WT) (Homo sapiens, UniProt Q03431); test: Wash out assay, duration of cAMP signaling; format: cell-based; conditions: ligand 10^-6 M, 10 min ligand-on phase, 70 min wash-out phase, HEK293T, GloSensor
T1 construct: a flag-tag was fused to the N terminal of full-length PTH1R (WT or mutant); expressed in transfected cells; host or cells: HEK293T
T1 sequence (Q03431 27-593): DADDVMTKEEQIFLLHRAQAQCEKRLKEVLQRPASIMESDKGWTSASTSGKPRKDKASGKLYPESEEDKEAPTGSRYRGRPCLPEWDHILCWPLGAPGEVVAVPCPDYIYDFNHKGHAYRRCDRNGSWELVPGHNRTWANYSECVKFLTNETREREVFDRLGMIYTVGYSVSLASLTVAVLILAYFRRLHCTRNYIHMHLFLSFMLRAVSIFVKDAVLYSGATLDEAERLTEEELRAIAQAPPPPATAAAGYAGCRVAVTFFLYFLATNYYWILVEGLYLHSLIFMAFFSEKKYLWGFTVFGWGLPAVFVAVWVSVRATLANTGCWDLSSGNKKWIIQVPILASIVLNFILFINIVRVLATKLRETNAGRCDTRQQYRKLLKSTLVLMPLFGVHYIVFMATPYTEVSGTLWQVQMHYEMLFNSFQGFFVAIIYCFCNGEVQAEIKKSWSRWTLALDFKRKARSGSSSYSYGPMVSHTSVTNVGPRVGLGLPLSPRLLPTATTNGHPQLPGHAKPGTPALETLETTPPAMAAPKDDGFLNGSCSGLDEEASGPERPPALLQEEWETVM
Procedure: Human embryonic kidney 293 T (HEK293T) cells were transfected with a plasmid mixture consisting of pcDNA3.1-flag-PTH1R (WT) and the cAMP biosensor GloSensor-22F (Promega) at a ratio of 2:1. After 24 h, transfected cells were plated onto a 96-well plate, which was treated with cell adherent reagent (Applygen) in advance. After another 12 h, cells were treated with Hank’s balanced salt solution for starvation and then incubated in CO2-independent media containing 4% GloSensor cAMP Reagent (Promega) at a volume of 40 μl per well and incubated for 20 min at RT before measurements for baseline luminescence (Spark Multimode microplate reader, TECAN). Next, test ligands (10 μl) were added at 10^−6 M that approximated the respective Emax (efficacy) value obtained for that “ligand- on” phase were similar for the different ligands. Then the development of cAMP-dependent luminescence was measured for 10 min (“ligand-on” phase); the plates were then removed from the plate reader, the cells were rinsed twice to remove unbound ligand, treated with fresh media containing luciferin, and luminescence was again recorded for an additional 70 min (“wash-out” phase)[18]. Finally, data were analyzed using GraphPad Prism.

[2] = target: T2, PTH1R E180A mutant (Homo sapiens, UniProt Q03431, E180A); test: cAMP accumulation assay (GloSensor), PTH1R E180A; format: cell-based; conditions: for ΔpEC50±SEM: relative to WT, n = 3 in triplicate; for ΔpEC50±SEM / Span±SEM: mean ± SEM; for Span±SEM: window between maximal response (Emax) and vehicle, n = 3
T2 construct: a flag-tag was fused to the N terminal of full-length PTH1R (WT or mutant); expressed in transfected cells; host or cells: HEK293T
T2 sequence (Q03431 27-593 E180A): T1 sequence (Q03431 27-593) with E154A
Procedure: Human embryonic kidney 293 T (HEK293T, ATCC: CRL-1573) cells were transfected with a plasmid mixture consisting of pcDNA3.1-flag-PTH1R (WT or mutants) and the cAMP biosensor GloSensor-22F (Promega) at a ratio of 2:1 (see Supplementary Table 7 for a list of primers used in this study). After 24 h, transfected cells were plated onto a 384-well plate, which was treated with cell adherent reagent (Applygen) in advance. After another 12 h, cells were treated with Hank’s balanced salt solution for starvation and then incubated in CO2-independent media containing 4% GloSensor cAMP Reagent (Promega) at a volume of 5 μl per well and incubated for 20 min at RT before measurements for baseline luminescence (Spark Multimode microplate reader, TECAN). Next, test ligands were added at different concentrations from 10^−6 to 10^−13 M before second measurement. Finally, data were normalized to 100% of the maximal PTH (1-34) response for WT PTH1R using a sigmoidal dose-response in GraphPad Prism.
Statistical analyses were performed on at least three individual datasets and analysed using GraphPad Prism software. Bars represent differences in the calculated agonist potency (pEC50) and maximum agonist response (Emax) for each mutant relative to the WT receptor. Data are mean± s.e.m. from at least three independent experiments, performed in triplicates. ns, not significant, ^nsP > 0.01; ^*P < 0.01; ^**P < 0.001; ^***P < 0.0001 (one-way analysis of variance (ANOVA) followed by Dunnett’s test, compared with the response of the WT). For dose-response experiments, data were normalized and analyzed using nonlinear curve fitting for the log (agonist) versus response (three parameters) curves.

For “H-AVAEIQLMHQRAKWIQDARRRAFLHKLIAEIHTAEI-OH [LA-PTH, long-acting PTH analog, modified PTH/PTHrP hybrid]”, which “duration of cAMP signaling after wash-out” value (shortened to “duration of cAMP signaling”) [1] is on record?
The value was “stronger activity of sustained signaling when compared with the PTH”.

And the “span (from the WT)” value ([2]; PTH1R E1801.32A, replicate 1)?
The value was 111.

What about the “ΔpEC50 (from the WT)” value ([2]; PTH1R E1801.32A, replicate 1) of the same substance?
Its value is -0.03.

What about the “span (from the WT)” value ([2]; PTH1R E1801.32A, replicate 2) of the same substance?
The value was 162.5.

And the “ΔpEC50 (from the WT)” value ([2]; PTH1R E1801.32A, replicate 2)?
Its value is 0.025.

What about the “span (from the WT)” value ([2]; PTH1R E1801.32A, replicate 3) of the same substance?
Its value is 202.3.

What about the “ΔpEC50 (from the WT)” value ([2]; PTH1R E1801.32A, replicate 3) of the same substance?
Its value is 0.095.

And the “ΔpEC50±SEM” value [2]?
Its value is 0.03±0.04.

What about the “ΔpEC50 (from the WT)” value ([2]; replicate 1) of the same substance?
Its value is -0.03.

What about the “ΔpEC50 (from the WT)” value ([2]; replicate 2) of the same substance?
The value was 0.025.

What about the “ΔpEC50 (from the WT)” value ([2]; replicate 3) of the same substance?
The value was 0.095.

And the “Span±SEM” value [2]?
The value was 158.60±26.43.

How did the “duration of cAMP signaling” value [1] turn out when “H-AVSEHQLLHDKGKSIQDLRRRELLEKLL-{Aib}-KLHTA-NH2 [ABL, Abaloparatide, an analog of PTHrP, short-acting PTH1R agonist]” was run?
Its value is “obvious transient cAMP signaling”.

And the “span (from the WT)” value ([2]; PTH1R E1801.32A, replicate 1)?
Its value is 108.1.

And the “ΔpEC50 (from the WT)” value ([2]; PTH1R E1801.32A, replicate 1)?
Its value is -0.513.

And the “span (from the WT)” value ([2]; PTH1R E1801.32A, replicate 2)?
The value was 146.6.

What about the “ΔpEC50 (from the WT)” value ([2]; PTH1R E1801.32A, replicate 2) of the same substance?
The value was -0.61.

And the “span (from the WT)” value ([2]; PTH1R E1801.32A, replicate 3)?
Its value is 148.

And the “ΔpEC50 (from the WT)” value ([2]; PTH1R E1801.32A, replicate 3)?
Its value is -0.513.

What about the “ΔpEC50±SEM” value [2] of the same substance?
The value was -0.55±0.03.

And the “ΔpEC50 (from the WT)” value ([2]; replicate 1)?
Its value is -0.513.

And the “ΔpEC50 (from the WT)” value ([2]; replicate 2)?
Its value is -0.61.

What about the “ΔpEC50 (from the WT)” value ([2]; replicate 3) of the same substance?
Its value is -0.513.

And the “Span±SEM” value [2]?
The value was 134.23±13.07.

For “H-SVSEIQLMHNLGKHLNSMERVEWLRKKLQDVHNF-OH [PTH, Teriparatide, human PTH 1-34, long-acting peptide agonist of PTH1R]”, which “duration of cAMP signaling” value [1] is on record?
The value was “potent prolonged cAMP signaling”.

And the “span (from the WT)” value ([2]; PTH1R E1801.32A, replicate 1)?
The value was 108.2.

And the “ΔpEC50 (from the WT)” value ([2]; PTH1R E1801.32A, replicate 1)?
Its value is -0.151.

What about the “span (from the WT)” value ([2]; PTH1R E1801.32A, replicate 2) of the same substance?
The value was 115.5.

What about the “ΔpEC50 (from the WT)” value ([2]; PTH1R E1801.32A, replicate 2) of the same substance?
Its value is -0.207.

What about the “span (from the WT)” value ([2]; PTH1R E1801.32A, replicate 3) of the same substance?
The value was 203.5.

And the “ΔpEC50 (from the WT)” value ([2]; PTH1R E1801.32A, replicate 3)?
The value was 0.036.

And the “ΔpEC50±SEM” value [2]?
Its value is -0.11±0.07.

And the “ΔpEC50 (from the WT)” value ([2]; replicate 1)?
Its value is -0.151.

What about the “ΔpEC50 (from the WT)” value ([2]; replicate 2) of the same substance?
Its value is -0.207.

What about the “ΔpEC50 (from the WT)” value ([2]; replicate 3) of the same substance?
The value was 0.036.

What about the “Span±SEM” value [2] of the same substance?
Its value is 193.57±39.96.
